Results taken from US20220193209A1, “COMPOSITIONS AND METHODS FOR REACTIVATING LATENT IMMUNODEFICIENCY VIRUS AND/OR TREATING IMMUNODEFICIENCY VIRUS INFECTION” (The J. David Gladstone institutes, a testamentary trust …, priority 2019, published 2022).

Columns and labels:
[1] = system: latent HIVNL4-3 Luciferase reporter virus in primary CD4+ T cells; test: Luciferase reporter HIV reactivation in primary CD4+ T cells; assay type: cell-based, HIV-1; settings: 6 days after infection, increasing concentrations
Method: For reactivation of latent HIV-1 provirus, cells were counted and collected as pellets by centrifugation at 1500 rpm for 10 min. Cells were then plated in 96-well U-bottom plates at 1×10^6 per 200 μl in the presence of 30 μM Raltegravir (Santa Cruz Biotechnology) and the indicated activator. Cells were harvested 48 h after stimulation, washed one time with PBS, and lysed in 60 μl of Passive Lysis Buffer (Promega). After 15 min of lysis, the luciferase activity in cell extracts was quantified with a Perkin Elmer EnSpire 2300 Multimode plate reader after mixing 20 μl of lysate with 100 μl of substrate (Luciferase Assay System-Promega). Relative light units (RLU) were normalized to protein content determined by Bradford assay (BioRad). Data represent average (±SD) of three technical replicates per donor. Cell viability was measured with CellTiter-Blue Cell Viability Assay (Promega).
HIV reactivation was measured by luciferase activity and cell viability by flow cytometry.

[2] = system: latent HIV in CD4+ T cells from HIV-infected patients; test: Cell-associated HIV RNA by ddPCR in CD4+ T cells of HIV-infected patients on antiretroviral therapy, ex vivo; assay type: cell-based; settings: 100 and 1000 nM, 3 days, five patients
Method: Cells were treated ex vivo with two concentrations of AS1842856 (100 and 1000 nM), prostratin (250 nM) or combinations thereof for 3 days, and HIV RNA induction was measured by digital droplet PCR (ddPCR).

FOXO3 = target: T1, FOXO3 (Homo sapiens, UniProt O43524); test: Cellular Thermal Shift Assay (CETSA) in K562 cells, FOXO3; assay type: binding; settings: 1 μM
T1 construct: performed against the FOXO isoforms expressed in K562 cells; endogenous in cells; host or cells: K562
Method: K562 cells (ATCC) were maintained in appropriate volume of RPMI medium supplemented with 10% fetal bovine serum (Serum Plus—II, Sigma MO, USA), 100 units/mL penicillin and 100 […] (Corning, VA, USA). Short-term passages (<15) were used for all experiments. For CETSA, K562 cell were freshly seeded the day before the experiment. The day of experiment, equal numbers of cells were counted by Moxi Mini automated cell counter (Orflo) and 0.6×10^6 cells per data point were seeded in T-25 cell culture flasks (VWR, PA, USA) in appropriate volume of culture medium. Cells were exposed to […] AS1842856 or equal volume DMSO for 3 hours in an incubator with 5% CO2 and 37° C. […] The supernatants were transferred to new microcentrifuge tubes and analyzed by SDS-PAGE followed by immunoblotting analysis. […] Immunoblotting results were subjected to densitometric analysis (Image J) and melting temperatures of FOXO1, FOXO3 and FOXO4 were determined by Prism 7 (GraphPad) using nonlinear least-squares regression fit to Y=100/(1+10^(Log IC50−X)*H), where H=Hill slope (variable). The viability of the cells was assessed in triplicate by trypan blue exclusion. […]
Briefly, K562 cells were treated with increasing concentrations of the FOXO1 inhibitor AS1842856 just after HIVGKO infection. After 3-4 days, the percentage of latent cells and productive cells were quantified by FACS. […]

T1 sequence (O43524 whole entry, canonical isoform): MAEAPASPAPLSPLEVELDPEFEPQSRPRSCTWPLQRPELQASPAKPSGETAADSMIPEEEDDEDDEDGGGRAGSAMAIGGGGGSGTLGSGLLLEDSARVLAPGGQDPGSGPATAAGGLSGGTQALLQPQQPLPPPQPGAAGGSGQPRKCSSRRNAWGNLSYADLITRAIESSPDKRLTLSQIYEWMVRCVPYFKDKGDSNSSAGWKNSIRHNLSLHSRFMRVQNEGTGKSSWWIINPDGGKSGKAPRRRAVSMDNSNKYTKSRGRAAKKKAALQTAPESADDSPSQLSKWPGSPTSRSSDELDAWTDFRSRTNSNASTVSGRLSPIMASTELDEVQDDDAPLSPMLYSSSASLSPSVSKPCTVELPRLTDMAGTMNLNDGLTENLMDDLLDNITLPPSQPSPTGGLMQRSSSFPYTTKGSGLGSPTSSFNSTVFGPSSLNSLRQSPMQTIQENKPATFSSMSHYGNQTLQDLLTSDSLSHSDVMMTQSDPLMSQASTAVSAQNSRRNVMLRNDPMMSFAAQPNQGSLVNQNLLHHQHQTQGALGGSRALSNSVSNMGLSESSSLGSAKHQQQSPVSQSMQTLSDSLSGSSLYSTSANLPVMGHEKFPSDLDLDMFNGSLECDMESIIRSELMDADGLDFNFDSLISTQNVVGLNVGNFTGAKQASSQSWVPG

CCn1cc(C(=O)O)c(=O)c2c(N)c(F)c(NC3CCCCC3)cc21 [AS1842856, 5-amino-7-(cyclohexylamino)-1-ethyl-6-fluoro-4-oxo-1,4-dihydro-quinoline-3-carboxylic acid]
primary T-cell viability (primary CD4+ T cells): No changes | luciferase expression (HIV reactivation) [1]: reactivated luciferase expression | HIV RNA induction [2]: two-fold | change in FOXO3 melting curve (FOXO3): no changes
